Results taken from PubChem BioAssay (NCI).
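Results reflect a 48-hour exposure of cells in 96-well plates to compound at five concentrations. At the GI50, growth is halved. TGI is the concentration that stops growth completely.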

Legend:
Assay in all cases: inhibition of tumour cell growth, NCI panel, 48 h
HCT-116 colon = test system: HCT-116 colon
HCC-2998 colon = test system: HCC-2998 colon
SK-MEL-2 melanoma = test system: SK-MEL-2 melanoma
MCF7 breast = test system: MCF7 breast
HCT-15 colon = test system: HCT-15 colon
K-562 leukemia = test system: K-562 leukemia
786-0 renal = test system: 786-0 renal
SN12C renal = test system: SN12C renal
SF-295 CNS = test system: SF-295 CNS
OVCAR-3 ovarian = test system: OVCAR-3 ovarian
DU-145 prostate = test system: DU-145 prostate

SMILES	TGI (HCT-116 colon) [µM]	TGI (HCC-2998 colon) [µM]	TGI (SK-MEL-2 melanoma) [µM]	TGI (MCF7 breast) [µM]	TGI (HCT-15 colon) [µM]	TGI (K-562 leukemia) [µM]	TGI (786-0 renal) [µM]	TGI (SN12C renal) [µM]	TGI (SF-295 CNS) [µM]	TGI (OVCAR-3 ovarian) [µM]	TGI (DU-145 prostate) [µM]	GI50 (HCC-2998 colon) [µM]	GI50 (SK-MEL-2 melanoma) [µM]	GI50 (HCT-15 colon) [µM]	GI50 (K-562 leukemia) [µM]	GI50 (SN12C renal) [µM]	GI50 (OVCAR-3 ovarian) [µM]	GI50 (DU-145 prostate) [µM]	GI50 (HCT-116 colon) [µM]	GI50 (MCF7 breast) [µM]
Cc1ccc(NC(=O)C(=O)CC(=O)c2sc(Nc3c(C)cccc3C)nc2C)cc1C	> 100	> 100	> 100	> 100	> 100	> 100	> 100	> 100	> 100	> 100	> 100	–	–	–	–	–	–	–	–	–
CN(C)/N=C1\CC(c2ccccc2)C(C#N)(C#N)C1(C#N)C#N (stereo not given)	39.8	33.1	40	> 100	30.1	> 100	42.3	36.9	48.1	–	36.2	–	–	–	–	–	–	–	–	–
C[C@H](C/C=C/C(C)(C)O)[C@H]1CC[C@@]2(C)[C@@H]3CC[C@H]4C(C)(C)[C@@H](O)CC[C@@]45C[C@@]35CC[C@]12C	37.1	–	37.7	> 100	83.1	70.3	46.5	27.9	30.2	> 100	28.8	–	–	–	–	–	–	–	–	–
COc1cccc(-c2cc(=O)c3ccccc3[nH]2)c1	> 100	18.1	> 100	–	> 100	> 100	> 100	> 100	14.8	> 31.6	–	–	–	–	–	–	–	–	–	–
O=C1Nc2ccccc2/C1=c1\[nH]c(=O)/c(=C\c2ccc(OCc3ccccc3)cn2)[nH]c1=O	> 100	> 100	> 100	> 100	> 100	75.9	> 100	> 100	50.5	> 100	> 100	–	–	–	–	–	–	–	–	–
N#C/C(=C/NC(=S)c1ccncc1)C(N)=O	> 100	> 100	> 100	> 100	> 100	–	> 100	> 100	> 100	> 100	> 100	–	–	–	–	–	–	–	–	–
C[N+]1(CCN[N+]2(C)CCCCC2)CCc2ccccc2C1 (stereo not given)	> 100	> 100	> 100	> 100	> 100	> 100	> 100	> 100	> 100	> 100	> 100	–	–	–	–	–	–	–	–	–
O=C(CCc1ccccc1)ON1C(=S)C(c2ccccc2)(c2ccccc2)N=C1Sc1ccccc1	> 100	> 100	> 100	> 100	> 100	> 100	> 100	> 100	> 100	> 100	> 100	–	–	–	–	–	–	–	–	–
COc1cccc(/C=N/[N-]C(N)=O)c1[O-].[Cu+2].[OH3+].c1ccc(-c2ccccn2)nc1	> 63	> 100	45.1	–	> 100	66	36.6	> 96.8	> 100	> 100	–	–	–	–	–	–	–	–	–	–
CCOC(=O)C1=COC(C)(CCc2ccccc2)CC1=O (stereo not given)	> 100	–	> 100	> 100	> 100	> 100	> 100	> 100	> 100	> 100	> 100	–	–	–	–	–	–	–	–	–
Cn1c(N/N=C/c2ccccc2)nc(-c2ccc([N+](=O)[O-])cc2)c(C#N)c1=O	> 100	–	> 100	> 100	> 100	> 100	> 100	> 100	> 100	44.9	> 100	–	–	–	–	–	–	–	–	–
COc1ccc(-n2sc3ncccc3c2=O)cc1	32.6	> 100	> 100	49.1	44.2	–	32.3	91.3	> 100	60.8	> 100	–	–	–	–	–	–	–	–	–
NNC(=O)c1cc(=O)[nH][nH]1	> 100	–	> 100	> 100	> 100	> 100	> 100	> 100	> 100	–	> 100	–	–	–	–	–	–	–	–	–
COc1cc(C2c3cc4c(cc3OC(NCCO)C2C)OCO4)cc(OC)c1OC (stereo not given)	> 100	> 23.2	> 100	> 100	> 34.8	–	> 100	> 100	–	0.603	> 100	–	–	–	–	–	–	–	–	–
C(=C\N1CCCCC1)/c1nnnn1-c1ccccc1	> 100	> 100	–	–	> 100	> 100	> 100	> 100	66.9	90.6	> 100	–	–	–	–	–	–	–	–	–
CC(=O)N(O)c1ccc(-c2nc3ccccc3s2)cc1	> 100	> 100	> 100	–	> 100	> 100	> 100	> 100	> 100	> 100	> 100	–	–	–	–	–	–	–	–	–
C=CCOCn1cc(C)c(=O)[nH]c1=O	> 100	> 100	–	> 100	> 100	> 100	> 100	> 100	> 100	–	> 100	–	–	–	–	–	–	–	–	–
CCOC(=O)Cc1nc2c(N)ncnc2n1C1OC(COC(C)=O)C(OC(C)=O)C1OC(C)=O (stereo not given)	> 100	> 100	–	> 100	> 100	> 100	> 100	> 100	> 100	> 100	> 100	–	–	–	–	–	–	–	–	–
CCOC(=O)C1=C(C)N(c2ccc(OC)cc2)C2(O)C=CC(=O)C3=C(O)c4ccccc4C(=O)C312 (stereo not given)	23.4	–	31	19.2	20.9	39.5	–	30.2	29.3	11.7	28.4	–	–	–	–	–	–	–	–	–
O=C(NC(=S)NC(=O)c1cc(O)c(O)c(O)c1)c1cc(O)c(O)c(O)c1	44.4	87.9	40.4	> 100	67.8	–	40.2	53.7	46.3	–	63.8	–	–	–	–	–	–	–	–	–
COc1ccc(/C=C/C2=NN(c3cccc(S(=O)(=O)O)c3)C3(C2)SCC(=O)N3c2nc3ccccc3s2)cc1 (stereo not given)	> 100	> 100	> 100	> 100	> 100	> 100	> 100	> 100	–	–	> 100	–	–	–	–	–	–	–	–	–
Cc1nc2c(=S)n(C)ncc2[nH]1	> 100	> 100	> 100	> 100	> 100	> 100	> 100	> 100	> 100	> 100	–	–	–	–	–	–	–	–	–	–

SMILES	TGI (HCT-116 colon) [µM]	TGI (HCC-2998 colon) [µM]	TGI (SK-MEL-2 melanoma) [µM]	TGI (MCF7 breast) [µM]	TGI (HCT-15 colon) [µM]	TGI (K-562 leukemia) [µM]	TGI (786-0 renal) [µM]	TGI (SN12C renal) [µM]	TGI (SF-295 CNS) [µM]	TGI (OVCAR-3 ovarian) [µM]	TGI (DU-145 prostate) [µM]	GI50 (HCC-2998 colon) [µM]	GI50 (SK-MEL-2 melanoma) [µM]	GI50 (HCT-15 colon) [µM]	GI50 (K-562 leukemia) [µM]	GI50 (SN12C renal) [µM]	GI50 (OVCAR-3 ovarian) [µM]	GI50 (DU-145 prostate) [µM]	GI50 (HCT-116 colon) [µM]	GI50 (MCF7 breast) [µM]
Cc1cc(=O)[nH]c(NN2C(Cl)C(=O)C2c2cccc(Cl)c2)n1 (stereo not given)	–	98.9	35.8	–	40.9	65.8	–	62	–	51.1	–	–	–	–	–	–	–	–	–	–
O=C(OCC(Cl)(Cl)Cl)O[C@@H]1CCCC1(c1ccccc1)c1ccccc1	> 100	> 100	–	> 100	> 100	> 100	> 100	> 100	> 100	–	> 100	–	–	–	–	–	–	–	–	–
COc1ccc(C(OCC2OC(n3ccc(NC(=O)c4ccccc4)nc3=O)CC2OP2(=S)SCCS2)(c2ccccc2)c2ccc(OC)cc2)cc1 (stereo not given)	> 100	–	> 100	> 100	> 100	> 100	82	58.6	97.9	58.5	> 100	–	–	–	–	–	–	–	–	–
O=C1Nc2ccccc2Nc2ccncc21	> 100	> 100	> 100	> 100	> 100	> 100	–	> 31.6	> 100	> 100	–	–	–	–	–	–	–	–	–	–
Cc1ccccc1NC(=O)Cc1csc2[n+]1C(=O)/C(=C/c1ccc([N+](=O)[O-])cc1)S2	> 100	> 100	> 100	> 100	> 100	–	> 100	> 100	> 100	> 100	> 100	–	–	–	–	–	–	–	–	–
N#C[C@H](c1nc2ccccc2s1)c1nc2ccccc2nc1Cl	> 100	7.09	> 100	24.8	22.9	–	> 100	> 100	35.7	38.9	–	–	–	–	–	–	–	–	–	–
CC1=NC(=Cc2ccc([N+](=O)[O-])cc2)C(=O)N1n1c(-c2ccccc2)nc2ccccc2c1=O	> 100	> 100	–	> 100	> 100	> 100	> 100	> 100	> 100	–	> 100	–	–	–	–	–	–	–	–	–
COc1ccc2c(OCc3nnc4ccc(-c5ccccc5)nn34)ccnc2c1	–	> 100	> 100	–	> 100	> 100	–	> 100	–	> 100	> 100	> 100	> 91.1	> 100	> 100	> 100	> 100	> 100	–	–
COC(=O)c1ccc(Nc2nc3nc[nH]c3c(=O)[nH]2)cc1	> 100	> 100	> 100	> 100	> 100	–	> 100	> 100	> 100	> 100	> 100	–	–	–	–	–	–	–	–	–
Cc1nc2ccccc2c(/C=C/c2ccc(Cl)cc2)c1C(=O)/C=C/c1ccc(Cl)cc1	–	3	–	–	3.13	> 100	–	–	–	–	–	1.53	–	0.787	1.28	–	–	–	–	–
Oc1[nH]c2ccccc2c1/C=c1/cc2c(c(-c3ccc(F)cc3)n1)=Nc1ccccc1-2	2.24	2.16	1.34	2.57	2.43	3.55	–	3.88	–	0.591	2.03	0.726	0.327	0.735	0.435	1.38	0.233	0.422	1.01	0.817
O=C(NNc1nc(-c2ccccc2)cs1)C(F)(F)F	> 100	> 100	> 100	> 100	> 100	93.5	> 100	> 100	> 100	–	> 100	–	–	–	–	–	–	–	–	–
COc1ccccc1C[C@@H]1OC2(C=CC(=O)C=C2)O[C@H]1Cc1ccccc1OC	2.32	–	18.4	17.6	27.9	> 50	4.29	23.4	22.9	18.9	> 50	–	–	–	–	–	–	–	–	–
COc1ccc(/C=N/n2cnc3[nH]c(C)c(Cc4ccccc4)c3c2=N)cc1	> 100	> 100	> 100	> 100	> 100	–	> 100	> 100	> 100	> 100	> 100	–	–	–	–	–	–	–	–	–
Clc1ccc(OCc2nn3c(CCc4nnc5sc(COc6ccc(Cl)cc6)nn45)nnc3s2)cc1	85.4	–	87.8	92.8	95.8	> 100	> 100	–	> 100	65.8	44.2	–	–	–	–	–	–	–	–	–
O=C1c2cn[nH]c2C(c2ccccc2)N1c1ccccc1 (stereo not given)	> 10	> 10	> 10	> 10	> 10	–	> 10	> 10	> 10	> 10	> 10	–	–	–	–	–	–	–	–	–
CSc1c(C(=O)Nc2ccc(Cl)cc2)c(N)n(N)c(=O)c1C#N	> 100	> 100	> 100	> 100	> 100	> 100	> 100	> 100	–	> 100	> 100	–	–	–	–	–	–	–	–	–
CC(C)(C)OC(=O)NCCCCC(NC(=O)c1ccccc1)C(N)=O (stereo not given)	> 100	–	> 100	> 100	> 100	> 100	> 100	> 100	> 100	> 100	> 100	–	–	–	–	–	–	–	–	–
CCOC(=O)N(c1ccccc1)N(CC)C(=O)/C(C)=N/Nc1ccc([N+](=O)[O-])cc1	27.1	32.5	30	–	30.3	38.1	33.4	31.4	32.3	31.1	–	–	–	–	–	–	–	–	–	–
O=c1cnn(CCOCP(=O)(O)O)c(=O)[nH]1	–	> 100	> 100	> 100	–	> 100	–	> 100	–	> 100	> 100	–	–	–	–	–	–	–	–	–
CC(C)C1N(C)c2ccc(Cl)cc2[C@H]2c3ccccc3CCN12 (stereo not given in full)	> 100	–	74.1	> 100	> 100	> 100	> 100	> 100	> 100	70.3	> 100	–	–	–	–	–	–	–	–	–
